From patent publication US10729137B2, “Quaternary fungicidal mixture” (priority 2013, dated 2020)
“Also recorded” adds a separate entry of the source.

Legend:
[1] = tested on: dollar spot, Sclerotinia homeocarpa; assay: Field study of disease control on creeping bentgrass plots (percent inhibition, Colby synergy); format: in vivo; conditions: four applications at 14 day intervals, rated 15 days after final application, chlorothalonil 3.1, iprodione 1.03, thiophanate methyl 1.03, tebuconazole 0.31 LBai/A where included
Source text: In the context of the present subject matter, the term “synergy” is as defined by S. R. Colby in an article entitled “Calculation of the synergistic and antagonistic responses of herbicide combinations” published in the journal Weeds, 1967, 15, p. 20-22, incorporated herein by reference in its entirety. The action expected for a given combination of four active components can be calculated as follows:
[formula] in which E represents the expected percentage of fungicidal control (percent inhibition) for the multiple mixture of fungicides at defined doses (for example equal to x, y, z and w, respectively). X is the percentage of fungicide control observed by chlorothalonil at a defined dose (equal to x). Y is the percentage of fungicide control observed by iprodione at a defined dose (equal to y). Z is the percentage of fungicide control observed by thiophanate methyl at a defined dose (equal to z). W is the percentage of fungicide control observed by tebuconazole at a defined dose (equal to w). Here, efficacy or percent inhibition is determined in %. 0% means efficacy that corresponds to the Control, i.e., as if no treatment had been applied. Whereas, a percent inhibition of 100% means that no infection is observed. When the percent inhibition observed for the combination is greater than E, there is a synergistic effect. When the percent inhibition observed for the combination is equal to E, there is an additive effect and wherein the percent inhibition observed for the combination is lower than E, there is an antagonistic effect.
In the Colby model, one can transform its use of “percent inhibition” (or control) to “percent-of-untreated Control” to solve for E1 rather than E and simplify the equation:
[formula] where E1=100−E (conversely, solving for E, 100−E1=E), X1=100−X, Y1=100−Y, Z1=100−Z, and W1=100−W. Although many combinations of fungicides have been studied and evaluated by means of the Colby Index, it is quite clear by modeling such synthetic expressions of synergy that the addition of a third, or even fourth, active ingredient to the premix may encounter the Point of Diminishing Returns caused by correction factors for 3- and 4-way interactions that offset the increase in E (or decrease in E1). In marked contrast, the present subject matter has shown an expansive effect and performance boost so great that differences between the observed and expected values computed according to Colby can best be used as a descriptive statistic confirming the quarternary fungicidal mixture's obvious effect.
(§1) A field study was conducted to identify which combinations would maintain or improve Turf Quality (TQ) and prevent or cure crown, basal or foliar pathogens such as dollar spot. Each solo treatment, 2-way (Pair), 3-way (Triad), and the present quaternary fungicidal mixture was applied bi-weekly beginning Jul. 1, 2013 prior to any evidence of decline in TQ or appearance of disease. Experimental plots were laid out in a Randomized Complete Block design.
(§2) The dosage of each fungicidal active substance was held constant regardless of whether it appeared alone or in combination with other fungicides in order to quantify synergy according to the Colby formula. The quaternary mixture of the present subject matter was applied at the lowest rate specified herein, about 5.5 lb active substance per acre. Applications were made to replicate plots of creeping bentgrass (Agrostis stolonifera), each measuring 3 ft×5 ft. The turf was mowed as needed to maintain standard fairway height (blade length less than 0.5″). Four applications were made at 14 day re-treatment intervals, which is a conventional treatment schedule at the time of year when outbreaks of turfgrass disease occur reliably in the mid-Atlantic region (Greenville, Del.).
The mix rate and volume of dilute spray applied to each plot was held constant. […]

[2] = tested on: creeping bentgrass (Agrostis stolonifera); assay: Field study, Turf Quality (TQ) rating of treated plots; format: in vivo; conditions: ordinal scale 1-9 (8 and higher ideal, under 6 unacceptable), same plots, rates and timing, 15 days after final application
Procedure: as §1, §2
The mix rate and volume of dilute spray applied to each plot was held constant. A CO2 backpack sprayer outfitted with TeeJet AI9504E flat fan nozzle delivered a water dilution of each treatment at the use rate of 43.5 gallons per acre (407 liters Ha^−1) and 35 psi (0.375 gallons per minute).
Plots were evaluated and disease or cause of lesion identified 15 days after the final scheduled application, which was made on 12 August. At that time researchers rated each plot's TQ, the incidence of disease and its severity. Percent disease ratings were calculated on the basis of the percent of area of each plot showing symptoms of a disease, primarily dollar spot. Turf quality and color ratings are typically used as an indicator of the health of the turfgrass. Turf quality is scored on an ordinal scale from 1-9, where plots rated 8 and higher are considered ideal for color, uniformity and density, around 6.5 and above is considered acceptable, and ratings under 6 unacceptable for turfgrass disease and/or turf quality.
Disease pressure evidenced by the untreated control ratings was considered severe. Six untreated control plots averaged 40% incidence, primarily due to a continuous increase in dollar spot pressure over time. By the end of the trial, TQ of the untreated plots declined to a low level, where leaf die-back, bleaching and lesions rated an average TQ of 4.2. Turf quality of plots treated with each active substance alone at these dosages was poor, averaging 3.9.

## N#Cc1c(Cl)c(Cl)c(Cl)c(C#N)c1Cl [Chlorothalonil]
[1]
  Percent Inhibition: 15.8%
[2]
  Turf Quality: 4.3

## CC(C)NC(=O)N1CC(=O)N(c2cc(Cl)cc(Cl)c2)C1=O [Iprodione]
[1]
  Percent Inhibition: 5.8%
[1]; listed as iprodione
  Percent Inhibition: no better than the untreated control
[2]
  Turf Quality: 4.0
[2]; listed as iprodione
  Turf Quality: no better than the untreated control

## CC(C)(C)C(O)(CCc1ccc(Cl)cc1)Cn1cncn1 (stereo not drawn) [Tebuconazole]
[1]
  Percent Inhibition: 19.3%
[2]
  Turf Quality: 4.0

## COC(=O)NC(=S)Nc1ccccc1NC(=S)NC(=O)OC [Thio methyl, Thiophanate methyl]
[1]
  Percent Inhibition: 0%
[1]; listed as thiophanate methyl
  Percent Inhibition: no better than the untreated control
[2]
  Turf Quality: 3.3
[2]; listed as thiophanate methyl
  Turf Quality: no better than the untreated control; also recorded: significantly lower ratings than those of the untreated Control
